# Measured values from US20200392116A1, “SUBSTITUTED HETEROCYCLES AS c-MYC TARGETING AGENTS” (NORTHWESTERN UNIVERSITY, priority 2019, published 2020).
# Assay: Potency code of Table 2 (assay not stated)
row,SMILES,Potency code
1,Cc1ccc(C)c(Oc2cn(C)nc2-c2ccc(OCc3ccc4ccccc4c3)cc2O)c1 [NUCC-0196291],+ (>40 +)
2,CS(=O)(=O)c1cccc(-c2c(OCc3ccc(Cl)cc3)ccc(-c3cc(C(F)(F)F)n[nH]3)c2O)c1 [NUCC-0201036],++ (30-40 ++)
3,CCCCCCOc1ccc(-c2cc(C(F)(F)F)n[nH]2)c(O)c1-c1cncc(C(F)(F)F)c1 [NUCC-0201192],+++ (10-30 +++)
4,CCc1ccc(Oc2c(-c3ccc(OCc4ccc(OC)cc4)cc3O)nn(C)c2C(F)(F)F)cc1 [NUCC-0196358],+ (>40 +)
5,Cn1nc(C(F)(F)F)cc1-c1ccc(OCCCNC(=O)COCCOCCOCCn2cc(COc3cccc4c3C(=O)N(C3CCC(=O)NC3=O)C4=O)nn2)c(-c2cncc(C(F)(F)F)c2)c1O (stereo not drawn) [NUCC-0201703],+ (>40 +)
6,Cc1ccc(-c2cn(C)nc2-c2ccc(OCc3ccc(Cl)cc3)cc2O)cc1 [NUCC-0196346],+ (>40 +)
7,Cn1nc(-c2ccc(OCc3ccc(Cl)cc3)c(-c3cccc(C#N)c3)c2O)cc1C(N)=O [NUCC-0200558],++++ (<10 ++++)
8,Cn1nc(-c2ccc(Nc3ccc(F)c(F)c3)cc2O)cc1C(F)(F)F [NUCC-0200560],+ (>40 +)
9,CCc1ccc(Oc2c(-c3ccc(OCc4ccc(Cl)c(Cl)c4)cc3O)nn(C)c2C(F)(F)F)cc1 [NUCC-0196354],+ (>40 +)
10,Cn1nc(-c2ccc(OCCCN)c(-c3ccc(Cl)c(C(F)(F)F)c3)c2O)cc1C(F)(F)F [NUCC-0201643],+ (>40 +)
11,Oc1ccc(OCc2ccc(Cl)cc2)cc1-c1[nH]nc(C(F)(F)F)c1-c1ccc(F)cc1 [NUCC-0200575],++++ (<10 ++++)
12,Cn1nc(-c2ccc(Nc3ccc(Cl)cc3)cc2O)cc1C(F)(F)F [NUCC-0200492],+++ (10-30 +++)
13,Cn1nc(-c2ccc(N)cc2O)cc1C(F)(F)F [NUCC-0200498],+ (>40 +)
14,NCCOc1ccc(-c2cc(C(F)(F)F)n[nH]2)c(O)c1-c1ccc(Cl)c(C(F)(F)F)c1 [NUCC-0201640],+ (>40 +)
15,CCCCOc1ccc(-c2cc(C(F)(F)F)n[nH]2)c(O)c1-c1cc(C(F)(F)F)cc(C(F)(F)F)c1 [NUCC-0201031],+ (>40 +)
16,O=C(COCCOCCOCCn1cc(COc2cccc3c2C(=O)N(C2CCC(=O)NC2=O)C3=O)nn1)NCCOc1ccc(-c2cc(C(F)(F)F)n[nH]2)c(O)c1-c1cncc(C(F)(F)F)c1 (stereo not drawn) [NUCC-0201704],+ (>40 +)
17,Cn1cc(-c2cc(C(F)(F)F)cc(C(F)(F)F)c2)c(-c2ccc(OCc3ccc(Cl)cc3)cc2O)n1 [NUCC-0198319],+ (>40 +)
18,Cn1nc(C(F)(F)F)cc1-c1ccc(OCc2ccc(Cl)cc2)c(-c2ccc(Cl)c(C(F)(F)F)c2)c1O [NUCC-0200975],+ (>40 +)
19,[N-]=[N+]=NCCOCCOCCOCC(=O)Nc1ccc(COc2ccc(-c3cc(C(F)(F)F)n[nH]3)c(O)c2-c2cc(C(F)(F)F)cc(C(F)(F)F)c2)cc1 [NUCC-0201199],+++ (10-30 +++)
20,Cn1nc(C(F)(F)F)cc1-c1ccc(OCc2ccc(Cl)cc2)c(-c2ccc(C(N)=O)cc2)c1O [NUCC-0198409],+ (>40 +)
21,COc1ccc(COc2ccc(-c3cc(C(F)(F)F)n(C)n3)c(O)c2-c2cc(C(F)(F)F)cc(C(F)(F)F)c2)cc1 [NUCC-0201043],+ (>40 +)
22,Nc1nc(-c2ccc(OCc3ccc(Cl)cc3)cc2O)cc(C(F)(F)F)n1 [NUCC-0200502],+ (>40 +)
23,Oc1cc(OCc2ccc(Cl)cc2)ccc1-c1n[nH]cc1-c1cccc(Cl)c1 [NUCC-0196350],+++ (10-30 +++)

row,SMILES,Potency code
1,Cc1[nH]nc(-c2ccc(OCc3ccc(F)cc3)cc2O)c1Oc1ccccc1 [NUCC-0176259],+ (>40 +)
2,Cn1nc(C(F)(F)F)cc1-c1ccc(OCc2ccc(Cl)cc2)c(-c2ccc(C(F)(F)F)cc2Cl)c1O [NUCC-0200738],+++ (10-30 +++)
3,CCc1ccc(Oc2c(-c3ccc(OCc4cccc(OC)c4)cc3O)n[nH]c2C(F)(F)F)cc1 [NUCC-0196297],+ (>40 +)
4,Cn1nc(C(F)(F)F)cc1-c1ccc(OCc2ccc(F)cc2)c(-c2cc(C(F)(F)F)cc(C(F)(F)F)c2)c1O [NUCC-0201034],+ (>40 +)
5,Cc1ccc(C)c(Oc2cn(C)nc2-c2ccc(OCCN3CCCCC3)cc2O)c1 [NUCC-0196299],+ (>40 +)
6,Cn1cc(-c2ccc(OCc3ccc(Cl)cc3)cc2F)c(C(F)(F)F)n1 [NUCC-0200743],+ (>40 +)
7,C#CCC(N=[N+]=[N-])C(=O)NCCOc1ccc(-c2cc(C(F)(F)F)n[nH]2)c(O)c1-c1cncc(C(F)(F)F)c1 (stereo not drawn) [NUCC-0201697],+ (>40 +)
8,Oc1cccc(COc2ccc(Cl)cc2)c1-c1cc(C(F)(F)F)n[nH]1 [NUCC-0200570],+ (>40 +)
9,COc1ccc(-c2c(-c3ccc(OCc4ccc(Cl)cc4)cc3O)n[nH]c2C(F)(F)F)cc1 [NUCC-0196312],+ (>40 +)
10,Oc1cc(OCc2ccccc2)ccc1-c1n[nH]cc1Oc1ccccc1 [NUCC-0176255],+ (>40 +)
11,Cc1cc(C)cc(-c2cnn(C)c2-c2ccc(OCc3ccc(Cl)cc3)cc2O)c1 [NUCC-0198354],+ (>40 +)
12,O=CNc1ccc(Nc2ccc(-c3cc(C(F)(F)F)[nH]n3)c(O)c2)cc1 [NUCC-0200563],+ (>40 +)
13,Oc1c(-c2cc(C(F)(F)F)[nH]n2)ccc(OCc2ccc(Cl)cc2)c1-c1ccoc1 [NUCC-0198325],+ (>40 +)
14,Cn1nc(C(F)(F)F)cc1-c1cnc(OCc2ccc(Cl)cc2)cn1 [NUCC-0200692],+ (>40 +)
15,Oc1cc(Nc2ccc3c(c2)OCO3)ccc1-c1cc(C(F)(F)F)[nH]n1 [NUCC-0200561],+ (>40 +)
16,CC(C)CCOc1ccc(-c2cc(C(F)(F)F)n[nH]2)c(O)c1-c1cncc(C#N)c1 [NUCC-0201195],++++ (<10 ++++)
17,CCOC(=O)c1cc(-c2ccc(OCc3ccc(Cl)cc3)c(-c3ccc(C#N)cc3)c2O)n[nH]1 [NUCC-0200489],+ (>40 +)
18,CC(C)COc1ccc(-c2cc(C(F)(F)F)n[nH]2)c(O)c1-c1cc(C(C)(F)F)cc(C(F)(F)F)c1 [NUCC-0201030],+ (>40 +)
19,Cn1ncc(-c2ccoc2)c1-c1ccc(OCc2ccc(Cl)cc2)cc1O [NUCC-0198323],+ (>40 +)
20,CC(C)CCOc1ccc(-c2cc(C(F)(F)F)n(C)n2)c(O)c1-c1cncc(C#N)c1 [NUCC-0201213],++++ (<10 ++++)
21,Cc1ccccc1-c1cn(C)nc1-c1ccc(OCc2ccc(Cl)cc2)cc1O [NUCC-0198356],+ (>40 +)
22,Cn1nc(C(F)(F)F)cc1-c1ccc(OCc2ccc(Cl)cc2)c(-c2cccnc2)c1O [NUCC-0196365],+ (>40 +)
23,COc1cccc(-c2cn(C)nc2-c2ccc(OCc3ccc(Cl)cc3)cc2O)c1 [NUCC-0198326],+ (>40 +)

row,SMILES,Potency code
1,Oc1c(-c2cc(C(F)(F)F)[nH]n2)ccc(OCc2ccc(Cl)cc2)c1-c1ccsc1 [NUCC-0201909],+ (>40 +)
2,Cn1nc(C(F)(F)F)cc1-c1ccc(OCc2ccc([N+](=O)[O-])cc2)c(-c2cncc(C(F)(F)F)c2)c1O [NUCC-0201653],+++ (10-30 +++)
3,Oc1c(-c2cc(C(F)(F)F)[nH]n2)ccc(OCc2ccc(Cl)cc2)c1C1CC1 [NUCC-0201910],+ (>40 +)
4,Oc1cc(OCc2ccc(Cl)cc2)ccc1-c1n[nH]cc1-c1ccccc1 [NUCC-0198293],+ (>40 +)
5,Cn1nc(C(F)(F)F)cc1-c1ccc(OCCCNC(=O)COCCOCCOCCn2cc(COc3cccc4c3C(=O)N(C3CCC(=O)NC3=O)C4=O)nn2)c(-c2ccc(Cl)c(C(F)(F)F)c2)c1O (stereo not drawn) [NUCC-0201702],+ (>40 +)
6,CCc1ccc(Oc2c[nH]nc2-c2ccc(OCc3ccc(Cl)cc3)cc2O)cc1 [NUCC-0176243],+ (>40 +)
7,Cn1nc(C(F)(F)F)cc1-c1ccc(OCCCNC(=O)OC(C)(C)C)c(-c2cncc(C(F)(F)F)c2)c1O [NUCC-0201655],+ (>40 +)
8,Cn1nc(C(F)(F)F)cc1-c1ccc(NCc2ccc(Cl)cc2)cn1 [NUCC-0200691],+ (>40 +)
9,Cn1nc(-c2ccc(OCc3ccc(Cl)cc3)c(-c3cccnc3)c2O)cc1C(F)(F)F [NUCC-0196364],+ (>40 +)
10,Oc1c(-c2cc(C(F)(F)F)n[nH]2)ccc(OCCc2ccc(Cl)cc2)c1-c1cc(C(F)(F)F)cc(C(F)(F)F)c1 [NUCC-0201024],++++ (<10 ++++)
11,COc1ccc(-c2c[nH]nc2-c2ccc(OCc3ccc(Cl)cc3)cc2O)cc1 [NUCC-0198304],+ (>40 +)
12,Cn1nc(-c2ccc(OCc3ccc(Cl)cc3)c(-c3ccc(C(F)(F)F)c(Cl)c3)c2O)cc1C(F)(F)F [NUCC-0200729],+ (>40 +)
13,Cn1cc(-c2cccnc2)c(-c2ccc(OCc3ccc(Cl)cc3)cc2O)n1 [NUCC-0198321],+ (>40 +)
14,Cn1nc(C(F)(F)F)cc1-c1ccc(OCc2ccc(Cl)cc2)cn1 [NUCC-0200690],+ (>40 +)
15,Oc1ccc(OCc2ccc(Cl)cc2)cc1-c1[nH]nc(C(F)(F)F)c1-c1ccccc1Cl [NUCC-0200576],++++ (<10 ++++)
16,N#Cc1cncc(-c2c(OCc3ccc(Cl)cc3)ccc(-c3cc(C(F)(F)F)n[nH]3)c2O)c1 [NUCC-0201038],++++ (<10 ++++)
17,Oc1cc(Nc2ccc(Cl)c(Cl)c2)ccc1-c1cc(C(F)(F)F)[nH]n1 [NUCC-0200721],++++ (<10 ++++)
18,CN/N=C(\C)c1cccc(-c2c(OCc3ccc(Cl)cc3)ccc(-c3cc(C(F)(F)F)n(C)n3)c2O)c1 [NUCC-0198405],+ (>40 +)
19,CCc1ccc(Oc2c(-c3ccc(OCCc4cccc(C(F)(F)F)c4)cc3O)n[nH]c2C(F)(F)F)cc1 [NUCC-0176245],++ (30-40 ++)
20,CCc1ccc(Oc2c(-c3ccc(OCc4cccc(OC)c4)cc3O)nn(C)c2C(F)(F)F)cc1 [NUCC-0196298],++ (30-40 ++)
21,Oc1cc(OCc2ccc(Cl)cc2)ccc1-c1n[nH]c(C(F)(F)F)c1-c1ccccc1 [NUCC-0198295],++++ (<10 ++++)
22,O=C(O)c1cc(-c2ccc(OCc3ccc(Cl)cc3)c(-c3cc(C(F)(F)F)cc(C(F)(F)F)c3)c2O)n[nH]1 [NUCC-0200973],++++ (<10 ++++)
23,N#Cc1cc(-c2ccc(Nc3ccc(Cl)cc3)cc2O)n[nH]1 [NUCC-0200678],+ (>40 +)
